Experimental data reported in patent US11352361B2, “Compounds useful as RET inhibitors” (Cancer Research Technology Limited, priority 2017, dated 2022).

Experiments:
[1] = molecular target: RET (Homo sapiens (Human), UniProt P07949); assay: RET enzyme assay (CisBio HTRF kinEASE); type: biochemical; settings: RET/KDR enzyme and cell assays
[2] = molecular target: BaF3 cells expressing KDR (Homo sapiens, UniProt P35968, cells depend on it, form not given); settings: read-out: KDR Cell IC50; 48 hours incubation
[3] = molecular target: BaF3 cells expressing KIF5B-RET (Homo sapiens, UniProt P07949); assay: BaF3 cell assay, KIF5B-RET (CellTiter-Glo viability); type: cell-based; settings: 48 hours incubation
[4] = molecular target: KDR (Homo sapiens (Human), UniProt P35968); assay: KDR enzyme assay (CisBio HTRF kinEASE); type: biochemical; settings: ATP at Km, 15 mins pre-incubation
Sequence of KDR (P35968 790-1356): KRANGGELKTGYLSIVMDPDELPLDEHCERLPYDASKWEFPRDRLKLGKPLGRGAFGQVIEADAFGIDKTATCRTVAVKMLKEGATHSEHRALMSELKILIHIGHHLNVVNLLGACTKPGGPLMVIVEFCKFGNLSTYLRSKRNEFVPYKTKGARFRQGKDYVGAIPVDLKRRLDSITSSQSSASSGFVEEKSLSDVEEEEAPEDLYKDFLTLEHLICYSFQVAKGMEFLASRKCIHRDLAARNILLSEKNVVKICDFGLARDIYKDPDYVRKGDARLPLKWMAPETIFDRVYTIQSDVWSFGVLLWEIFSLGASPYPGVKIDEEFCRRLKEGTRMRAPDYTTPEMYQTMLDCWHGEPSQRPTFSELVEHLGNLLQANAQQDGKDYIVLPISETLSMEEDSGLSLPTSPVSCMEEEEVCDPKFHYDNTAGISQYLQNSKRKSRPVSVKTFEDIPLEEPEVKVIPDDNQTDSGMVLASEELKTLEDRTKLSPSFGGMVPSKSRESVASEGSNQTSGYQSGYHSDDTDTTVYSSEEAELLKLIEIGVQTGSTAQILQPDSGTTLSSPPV

Sequence of RET (P07949 658-1114): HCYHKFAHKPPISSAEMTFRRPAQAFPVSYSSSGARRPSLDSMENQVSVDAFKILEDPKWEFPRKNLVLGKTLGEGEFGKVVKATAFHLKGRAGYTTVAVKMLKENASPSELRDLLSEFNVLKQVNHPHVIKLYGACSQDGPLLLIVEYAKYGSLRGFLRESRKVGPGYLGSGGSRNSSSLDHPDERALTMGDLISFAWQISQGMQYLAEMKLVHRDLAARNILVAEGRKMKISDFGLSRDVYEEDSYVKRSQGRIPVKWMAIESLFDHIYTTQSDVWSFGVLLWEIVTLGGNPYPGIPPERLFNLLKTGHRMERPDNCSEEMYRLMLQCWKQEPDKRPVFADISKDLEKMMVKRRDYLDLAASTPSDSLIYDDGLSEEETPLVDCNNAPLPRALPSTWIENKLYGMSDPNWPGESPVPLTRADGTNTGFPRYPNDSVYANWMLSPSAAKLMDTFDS
Sequence of BaF3 cells expressing KIF5B-RET (P07949 29-1114 limits assumed, stated change not applied): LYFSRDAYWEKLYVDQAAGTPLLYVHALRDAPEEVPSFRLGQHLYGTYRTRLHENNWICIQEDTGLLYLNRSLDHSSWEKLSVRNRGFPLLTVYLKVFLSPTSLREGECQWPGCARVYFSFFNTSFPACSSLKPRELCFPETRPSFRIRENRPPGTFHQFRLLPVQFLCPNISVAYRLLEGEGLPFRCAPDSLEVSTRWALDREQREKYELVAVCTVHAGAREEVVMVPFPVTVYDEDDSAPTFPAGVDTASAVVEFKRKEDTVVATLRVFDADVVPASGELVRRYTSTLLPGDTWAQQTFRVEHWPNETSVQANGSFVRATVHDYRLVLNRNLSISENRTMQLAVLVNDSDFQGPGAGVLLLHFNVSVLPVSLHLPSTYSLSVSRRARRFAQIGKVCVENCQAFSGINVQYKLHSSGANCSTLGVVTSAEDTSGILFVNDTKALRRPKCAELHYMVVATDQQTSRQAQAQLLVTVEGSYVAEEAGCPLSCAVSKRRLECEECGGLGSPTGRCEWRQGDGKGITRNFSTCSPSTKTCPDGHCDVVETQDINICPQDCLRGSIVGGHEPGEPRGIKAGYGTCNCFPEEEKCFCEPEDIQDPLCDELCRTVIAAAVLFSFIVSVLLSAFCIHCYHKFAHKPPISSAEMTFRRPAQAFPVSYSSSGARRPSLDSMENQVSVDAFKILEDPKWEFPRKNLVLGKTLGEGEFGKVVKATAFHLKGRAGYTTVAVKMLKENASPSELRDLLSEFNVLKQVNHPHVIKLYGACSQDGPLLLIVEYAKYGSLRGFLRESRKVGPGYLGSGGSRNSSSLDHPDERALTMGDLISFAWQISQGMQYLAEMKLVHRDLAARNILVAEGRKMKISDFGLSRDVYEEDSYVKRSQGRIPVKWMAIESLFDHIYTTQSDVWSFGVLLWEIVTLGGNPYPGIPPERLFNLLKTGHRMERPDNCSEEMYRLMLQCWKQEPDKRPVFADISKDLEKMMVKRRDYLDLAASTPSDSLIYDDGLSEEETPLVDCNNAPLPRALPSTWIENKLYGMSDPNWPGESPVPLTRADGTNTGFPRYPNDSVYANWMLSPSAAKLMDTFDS
Sequence of BaF3 cells expressing KDR (P35968 20-1356 limits assumed, change not shown): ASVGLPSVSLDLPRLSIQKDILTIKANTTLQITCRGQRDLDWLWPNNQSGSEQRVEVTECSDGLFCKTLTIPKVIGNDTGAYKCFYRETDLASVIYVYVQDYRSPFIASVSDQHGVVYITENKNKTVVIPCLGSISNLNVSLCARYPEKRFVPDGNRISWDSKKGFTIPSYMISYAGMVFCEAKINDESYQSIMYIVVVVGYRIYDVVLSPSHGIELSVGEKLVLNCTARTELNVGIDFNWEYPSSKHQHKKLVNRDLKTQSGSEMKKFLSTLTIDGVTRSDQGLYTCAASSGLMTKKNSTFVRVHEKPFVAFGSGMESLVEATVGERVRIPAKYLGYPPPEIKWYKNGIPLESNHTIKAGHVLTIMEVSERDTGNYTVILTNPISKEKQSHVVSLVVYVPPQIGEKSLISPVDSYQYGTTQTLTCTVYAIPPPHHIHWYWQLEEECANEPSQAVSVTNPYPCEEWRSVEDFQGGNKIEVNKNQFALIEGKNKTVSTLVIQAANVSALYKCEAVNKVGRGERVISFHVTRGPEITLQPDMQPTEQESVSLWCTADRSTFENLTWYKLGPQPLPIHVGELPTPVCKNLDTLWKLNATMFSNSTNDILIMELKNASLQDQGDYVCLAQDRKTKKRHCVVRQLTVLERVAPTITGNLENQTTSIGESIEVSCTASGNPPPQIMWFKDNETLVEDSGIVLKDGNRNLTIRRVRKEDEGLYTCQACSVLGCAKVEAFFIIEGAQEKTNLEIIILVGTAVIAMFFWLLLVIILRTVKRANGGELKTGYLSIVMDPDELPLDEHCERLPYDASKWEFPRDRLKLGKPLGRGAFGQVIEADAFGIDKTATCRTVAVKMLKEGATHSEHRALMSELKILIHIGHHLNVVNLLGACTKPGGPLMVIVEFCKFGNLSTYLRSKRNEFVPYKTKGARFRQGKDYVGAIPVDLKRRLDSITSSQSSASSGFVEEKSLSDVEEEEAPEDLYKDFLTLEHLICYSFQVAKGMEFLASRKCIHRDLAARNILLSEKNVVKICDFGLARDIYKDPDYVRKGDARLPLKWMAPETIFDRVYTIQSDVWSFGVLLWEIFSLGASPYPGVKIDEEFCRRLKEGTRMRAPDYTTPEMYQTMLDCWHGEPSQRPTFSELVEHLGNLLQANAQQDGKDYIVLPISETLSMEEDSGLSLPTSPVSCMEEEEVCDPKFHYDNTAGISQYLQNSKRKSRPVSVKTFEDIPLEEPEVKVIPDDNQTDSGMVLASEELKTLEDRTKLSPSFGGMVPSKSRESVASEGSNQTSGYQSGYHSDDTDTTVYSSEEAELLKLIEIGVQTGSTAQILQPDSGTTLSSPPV

Compound | desired activity in the assays described in Example 51 [1] | also measured
CNC(=O)c1cc2ccc(-c3n[nH]c4ncnc(N)c34)cc2[nH]1 [6-(4-amino-1H-pyrazolo[3,4-d]pyrimidin-3-yl)-N-methyl-1H-indole-2-carboxamide] | did not exhibit the desired activity | 
CC(C)n1nc(-c2ccc3cc(C(=O)Nc4nccs4)[nH]c3c2)c2c(N)ncnc21 [Example 37, 6-(4-Amino-1-isopropyl-pyrazolo[3,4-d]pyrimidin-3-yl)-N-thiazol-2-yl-1H-indole-2-carboxamide] |  | IC50 [2]: 702 nM
CNC(=O)c1cc2ccc(-c3nn(C4CC4)c4ncnc(N)c34)cc2[nH]1 [Example 50, 6-(4-Amino-1-cyclopropyl-pyrazolo[3,4-d]pyrimidin-3-yl)-N-methyl-1H-indole-2-carboxamide] |  | IC50 [3]: 222 nM
CC(C)(C)n1nc(-c2ccc3cc(C(=O)O)[nH]c3c2)c2c(N)ncnc21 [6-(4-amino-1-tert-butyl-pyrazolo[3,4-d]pyrimidin-3-yl)-1H-indole-2-carboxylic acid] | did not exhibit the desired activity | 
CNC(=O)c1cc2ccc(-c3nn(CC(=O)N(C)C)c4ncnc(N)c34)cc2[nH]1 [6-[4-amino-1-[2-(dimethylamino)-2-oxo-ethyl]pyrazolo[3,4-d]pyrimidin-3-yl]-N-methyl-1H-indole-2-carboxamide] | did not exhibit the desired activity | 
CCNC(=O)c1cc2ccc(-c3nn([C@H]4CC[C@@H](O)C4)c4ncnc(NC)c34)cc2[nH]1 [N-ethyl-6-[1-[(1 S,3R)-3-hydroxycyclopentyl]-4-(methylamino)pyrazolo[3,4-d]pyrimidin-3-yl]-1H-indole-2-carboxamide] | did not exhibit the desired activity | 
CC(C)(C)n1nc(-c2ccc3cc(C(=O)Nc4nccs4)[nH]c3c2)c2c(N)ncnc21 [Example 1, 6-(4-Amino-1-tert-butyl-pyrazolo[3,4-d]pyrimidin-3-yl)-N-thiazol-2-yl-1H-indole-2-carboxamide] |  | IC50 [3]: 83.6 nM
CC(C)(C)n1nc(-c2ccc3cc(C(=O)NCC(F)(F)F)[nH]c3c2)c2c(N)ncnc21 [Example 11, 6-(4-Amino-1-tert-butyl-pyrazolo[3,4-d]pyrimidin-3-yl)-N-(2,2,2-trifluoroethyl)-1H-indole-2-carboxamide] |  | IC50 [4]: 150000 nM; IC50 [2]: 4260 nM
CNC(=O)c1cc2ccc(-c3nn(CCO)c4ncnc(N)c34)cc2[nH]1 [6-[4-amino-1-(2-hydroxyethyl)pyrazolo[3,4-d]pyrimidin-3-yl]-N-methyl-1H-indole-2-carboxamide] | did not exhibit the desired activity | 
Cc1csc(NC(=O)c2cc3ccc(-c4nn(C(C)(C)C)c5ncnc(N)c45)cc3[nH]2)n1 [Example 26, 6-(4-Amino-1-tert-butyl-pyrazolo[3,4-d]pyrimidin-3-yl)-N-(4-methylthiazol-2-yl)-1H-indole-2-carboxamide] |  | IC50 [3]: 912 nM
CC(C)(C)n1nc(-c2ccc3cc(C(=O)Nc4nnc(C(F)(F)F)s4)[nH]c3c2)c2c(N)ncnc21 [6-(4-amino-1-tert-butyl-pyrazolo[3,4-d]pyrimidin-3-yl)-N-[5-(trifluoromethyl)-1,3,4-thiadiazol-2-yl]-1H-indole-2-carboxamide] | did not exhibit the desired activity | 
CNC(=O)c1cc2ccc(-c3nn(CCC(=O)N(C)C)c4ncnc(N)c34)cc2[nH]1 [6-[4-amino-1-[3-(dimethylamino)-3-oxo-propyl]pyrazolo[3,4-d]pyrimidin-3-yl]-N-methyl-1H-indole-2-carboxamide] | did not exhibit the desired activity | 
